Results published in patent publication US12391677B2, “Thyroid hormone receptor agonists” (INVENTISBIO CO., LTD., priority 2018, dated 2025).
pEC50: −log10 of the molar value. Marks after values point to notes of the source that are not given here.

How the values were obtained:
[1] = target: ligand binding domain of thyroid hormone receptor beta (Homo sapiens (Human), UniProt P10828); assay: Thyroid hormone receptor TR-FRET binding assay (TRβ LBD); settings: TRβ LBD 2 nM
Protocol: (§1) TR-FRET binding assay was used to test representative compounds herein.
(§2) The ligand binding domain of thyroid hormone receptor alpha and the ligand binding domain of thyroid hormone receptor beta with GST tag were purchased from Invitrogen. Biotin-SRC2-2 coactivator peptide was purchased from Sangon Biotech, Europium anti-GST and Streptavidin-D2 was from Cisbio.
(§3) Five microliters of 4× compound serial dilution was added in the 384-well plate, white, low volume, round-bottom assay plate. […] Centrifuge the assay plates at 1000 g for 1 min and incubate 1 hr at RT, protected from light. […] Calculate EC50 by fitting % Activity values and log of compound concentrations to nonlinear regression (dose response—variable slope) with Graphpad 5.0.

[2] = target: ligand binding domain of thyroid hormone receptor alpha (Homo sapiens (Human), UniProt P10827); assay: Thyroid hormone receptor TR-FRET binding assay (TRα LBD); settings: TRα LBD 4 nM
Sequence of ligand binding domain of thyroid hormone receptor alpha (P10827 other isoform, or with tags, fused parts or gaps del 1-162, other chains not shown): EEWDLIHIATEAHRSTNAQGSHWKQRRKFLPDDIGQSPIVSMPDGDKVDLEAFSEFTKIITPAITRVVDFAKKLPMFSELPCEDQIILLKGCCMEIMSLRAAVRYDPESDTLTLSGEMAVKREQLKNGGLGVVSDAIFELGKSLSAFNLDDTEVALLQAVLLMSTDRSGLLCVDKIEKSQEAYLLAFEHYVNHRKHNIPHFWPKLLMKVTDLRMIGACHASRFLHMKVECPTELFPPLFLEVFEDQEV
Protocol: as §1, §2, §3

[3] = target: TRβ-GAL4 binding domain chimeric receptors (Homo sapiens (Human), UniProt P10828); assay: Thyroid hormone receptor cell assay (GAL4 luciferase reporter in HEK293-LUC cells); assay type: cell-based
Sequence of TRβ-GAL4 binding domain chimeric receptors (P10828 217-461, stated change not applied): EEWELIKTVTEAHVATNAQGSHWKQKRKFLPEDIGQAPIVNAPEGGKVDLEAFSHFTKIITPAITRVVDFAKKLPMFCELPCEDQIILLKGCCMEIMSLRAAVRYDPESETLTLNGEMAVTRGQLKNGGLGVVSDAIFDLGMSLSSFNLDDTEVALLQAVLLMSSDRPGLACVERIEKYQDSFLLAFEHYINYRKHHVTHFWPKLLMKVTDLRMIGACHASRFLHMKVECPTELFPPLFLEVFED
From the text: TRα-LBD or TRβ-LBD, coding sequence was inserted into pBIND expression vector (Promega, E1581) to express TRβ-GAL4 binding domain chimeric receptors. This expression vector was transfected into HEK293-LUC host cells with reporter vector (pGL4.35 which carry a stably integrated GAL4 promoter driven luciferase reporter gene). Upon agonist binding to the corresponding TRa-GAL4 or TRb-GAL4 chimeric receptor, the chimeric receptor binds to the GAL4 binding sites and stimulates the reporter gene.
Seed 2.5×10^6 HEK293-LUC cells into a 60 mm dish and incubated for 16 h at 37° C. under 5% CO2 atmosphere. Mix 12 microliters of Lipo LTX reagent in 250 microliters of Opti-MEM Medium by inversion. Mix 6 ug of DNA in 250 uL of Opti-MEM medium, then add 6 uL of Lipo PLUS Reagent. Add diluted DNA to each tube of diluted Lipo LTX Reagent (1:1 ratio), and mix by Pipettor and incubate at room temperature for 10 min. The reagent mixture was added to a 60 mm dish, incubated with cells for 4-7 h at 37 degrees under 5% CO2 atmosphere.
75 nL compound was added into 384 well assay plate using ECHO550 and then add HEK293-LUC cells (transfected, 17,000 cells/well) into the plate using phenol red-free DMEM containing 5% charcoal/dextran-treated FBS and incubated for 16-20 h at […] under 5% CO2 atmosphere. Add 25 uL of Steady-Glo Luciferase Assay Reagent into each well. Shake for 5 min and then record the luminescence value on Envision 2104 plate reader.

[4] = Human hepatocyte clearance study; assay type: in vitro ADME
Protocol: The in vitro human hepatocyte clearance of compounds described here was studied using pooled human hepatocytes purchased from BioreclamationIVT (Westbury, NY, Cat # X008001, Lot # TQJ). The assay was conducted according to manufacturer's instruction. Briefly, 10 mM stock solutions of test compounds and positive control (Verapamil) were prepared in 100% DMSO. […] Incubation media is made of Williams E medium supplemented with 1×GlutaMax. Both thawing medium and incubation medium (serum-free) were placed in a 37° C. water bath for at least 15 minutes prior to use. […] Verapamil was use as a positive control in the assay. Vials of cryopreserved hepatocytes were removed from storage and thawed in a 37° C. water bath with gentle shaking. Contents of the vial were poured into the 50 mL thawing medium conical tube. Vials were centrifuged at 100 g for 10 minutes at room temperature. […] Hepatocyte viability and density were counted using a Trypan Blue exclusion, and then cells were diluted with serum-free incubation medium to a working cell density of 0.5×10^6 viable cells/mL. Then, a portion of the hepatocytes at 0.5×10^6 viable cells/mL was boiled for 5 minutes prior to adding to the plate as negative control to eliminate the enzymatic activity so that little or no substrate turnover should be observed. The boiled hepatocytes were used to prepare negative samples. Aliquots of 198 μL hepatocytes were dispensed into each well of a 96-well non-coated plate. The plate was placed in the incubator on an orbital shaker at 500 rpm for approximately 10 minutes. […] This assay was performed in duplicate. The plate was incubated in the incubator on an orbital shaker at 500 rpm for the designated time points. Twenty-five microliter of contents were transferred and mixed with 6 volumes (150 μL) of cold acetonitrile with IS (200 nM imipramine, 200 nM labetalol and 200 nM diclofenac) to terminate the reaction at time points of 0, 15, 30, 60, 90 and 120 minutes. […] For data analysis, all calculations were carried out using Microsoft Excel. Peak areas were determined from extracted ion chromatograms. The in vitro half-life (t1/2) of parent compound was determined by regression analysis of the percent parent disappearance vs. time curve. […] Conversion of the in vitro t1/2 (in minutes) into the scale-up unbound intrinsic clearance (scaled-up unbound CLint, in mL/min/kg) was done using the following equation (mean of duplicate determinations): Scaled-up unbound CLint=kV/N×scaling factor, where V=incubation volume (0.5 mL); N=number of hepatocytes per well (0.25×10^6 cells).

Sequence of ligand binding domain of thyroid hormone receptor beta (P10828 217-461): as the sequence (P10828 217-461, stated change not applied) above

Row | SMILES | pEC50 [1] | pEC50 [2] | pEC50 [3] | further results
1 | Cc1nn(-c2cc(Cl)c(Oc3cc(C(C)C4CCCCC4)c(=O)[nH]n3)c(Cl)c2)c(=O)[nH]c1=O (single isomer, unassigned) [Compound 75] | 6.80 | 5.95 | 6.57 | –
2 | N#Cc1nn(-c2cc(Cl)c(Oc3cc(C4CC4)c(=O)[nH]n3)c(Cl)c2)c(=O)[nH]c1=O [Compound 1] | 6.27 | 5.24 | 5.15 | –
3 | N#Cc1nn(-c2cc(Br)c(Oc3cc(C4CC4)c(=O)[nH]n3)c(Br)c2)c(=O)[nH]c1=O [Compound 8] | – | – | – | Human In vitro T1/2 ([4]; human, hepatocytes): ∞*; Human In vitro Clint ([4]; human, hepatocytes, 1 µM): 0.00* μL/min/10^6 cells; Human Scale-up Clint ([4]; human, hepatocytes, 1 µM): 0.00* mL/min/kg; Human Hepatocyte Remaining Percentage @ 120 min ([4]; human, hepatocytes, 2 h, 1 µM): 98%
4 | Cc1nn(-c2cc(Cl)c(Oc3cc(C4CCC4)c(=O)[nH]n3)c(Cl)c2)c(=O)[nH]c1=O [Compound 9] | – | – | – | CLint scaled at 1 µM ([4]; human, hepatocytes): 9.5 mL/min/kg; half-life at 1 µM ([4]; human, hepatocytes): 371 min; hepatocyte CLint at 1 µM ([4]; human, hepatocytes): 3.73 µL/min/1e6 cells; Human Hepatocyte Remaining Percentage @ 120 min ([4]; human, hepatocytes, 2 h, 1 µM): 79%
5 | N#Cc1nn(-c2cc(Cl)c(Oc3cc(CC4CCCCC4)c(=O)[nH]n3)c(Cl)c2)c(=O)[nH]c1=O [Compound 17] | 6.14 | < 4.05 | 4.91 | –
6 | Cc1nn(-c2cc(Cl)c(Oc3cc(Cc4ccccc4)c(=O)[nH]n3)c(Cl)c2)c(=O)[nH]c1=O [Compound 27] | – | – | – | Human Hepatocyte Remaining Percentage @ 120 min ([4]; human hepatocytes, 120 min): 100%; Human Scale-up Clint ([4]; human hepatocytes, scaling factor 2544.3): 1.04 mL/min/kg; Human In vitro Clint ([4]; human, hepatocytes): 0.41 μL/min/10^6 cells; Human In vitro T1/2 ([4]; human, hepatocytes): 2.365 days
7 | N#Cc1nn(-c2cc(Cl)c(Oc3cc(Cc4ccc(O)cc4)c(=O)[nH]n3)c(Cl)c2)c(=O)[nH]c1=O [Compound 33] | 7.10 | 5.90 | 4.94 | –
8 | CCc1nn(-c2cc(Cl)c(Oc3cc(C(C)C)c(=O)[nH]n3)c(Cl)c2)c(=O)[nH]c1=O [Compound 37] | 5.81 | 5.01 | 5.91 | –
9 | CCC(CC)c1cc(Oc2c(Cl)cc(-n3nc(C)c(=O)[nH]c3=O)cc2Cl)n[nH]c1=O [Compound 40] | 6.39 | 4.41 | 6.21 | –
10 | CC(C)c1cc(Oc2c(Cl)cc(-n3nc(C#N)c(=O)[nH]c3=O)cc2C(F)(F)F)n[nH]c1=O [Compound 47] | 6.80 | 5.83 | 5.38 | –
11 | CC(C)c1c[nH]c2ccc(Oc3c(Cl)cc(-n4nc(C#N)c(=O)[nH]c4=O)cc3Cl)cc12 [Compound 56] | 7.05 | 5.99 | 5.98 | –
12 | N#Cc1nn(-c2cc(Cl)c(Oc3cc(C4CCC4)c(=O)[nH]n3)c(C(F)(F)F)c2)c(=O)[nH]c1=O [Compound 62] | 6.74 | 5.84 | 5.28 | –
13 | Cc1nn(-c2cc(Cl)c(Oc3cc(Cc4ccc(C#N)cc4)c(=O)[nH]n3)c(Cl)c2)c(=O)[nH]c1=O [Compound 66] | – | – | – | CLint scaled at 1 µM ([4]; human, hepatocytes): 4 mL/min/kg; half-life at 1 µM ([4]; human, hepatocytes): 881 min; hepatocyte CLint at 1 µM ([4]; human, hepatocytes): 1.57 µL/min/1e6 cells; Human Hepatocyte Remaining Percentage @ 120 min ([4]; human, hepatocytes, 2 h, 1 µM): 93%
14 | N#Cc1nn(-c2cc(Cl)c(Oc3cc(Cc4ccc5[nH]ncc5c4)c(=O)[nH]n3)c(Cl)c2)c(=O)[nH]c1=O [Compound 73] | 7.00 | 5.93 | 4.95 | –
15 | CC(C)c1c[nH]c2ccc(Oc3c(Cl)cc(-n4nc(C#N)c(=O)[nH]c4=O)cc3C(F)(F)F)cc12 [Compound 83] | 7.70 | 6.85 | 6.64 | –
16 | CC(C)c1cc(Oc2c(Cl)cc(-n3nc(C#N)c(=O)[nH]c3=O)cc2Cl)n[nH]c1=O [MGL-3196, reference compound] | – | – | – | CLint scaled at 1 µM ([4]; human, hepatocytes): 21.3 mL/min/kg; half-life at 1 µM ([4]; human, hepatocytes): 165 min; hepatocyte CLint at 1 µM ([4]; human, hepatocytes): 8.39 µL/min/1e6 cells; Human Hepatocyte Remaining Percentage @ 120 min ([4]; human, hepatocytes, 2 h, 1 µM): 60%

Now from value to compound, other results behind:

Row | pEC50 [1] | pEC50 [2] | pEC50 [3] | SMILES | further results
17 | 6.12 | 4.44 | 5.01 | N#Cc1nn(-c2cc(Cl)c(Oc3cc(C4CCCC4)c(=O)[nH]n3)c(Cl)c2)c(=O)[nH]c1=O [Compound 2] | –
18 | 6.09 | 4.44 | 4.91 | N#Cc1nn(-c2cc(Cl)c(Oc3cc(C4CCCCC4)c(=O)[nH]n3)c(Cl)c2)c(=O)[nH]c1=O [Compound 4] | –
19 | 6.43 | 5.24 | 5.13 | N#Cc1nn(-c2cc(Cl)c(Oc3cc(C4CC4)c(=O)[nH]n3)c(Br)c2)c(=O)[nH]c1=O [Compound 7] | –
20 | 6.43 | 5.39 | 6.19 | Cc1nn(-c2cc(Cl)c(Oc3cc(C4CCCC4)c(=O)[nH]n3)c(Cl)c2)c(=O)[nH]c1=O [Compound 14] | –
21 | 5.36 | 4.22 | 5.34 | Cc1nn(-c2cc(Cl)c(Oc3cc(C4CCCCC4)c(=O)[nH]n3)c(Cl)c2)c(=O)[nH]c1=O [Compound 15] | –
22 | 6.77 | < 4.05 | 5.30 | N#Cc1nn(-c2cc(Br)c(Oc3cc(C4CCCC4)c(=O)[nH]n3)c(Br)c2)c(=O)[nH]c1=O [Compound 20] | –
23 | 7.05 | 5.85 | 6.70 | Cc1nn(-c2cc(Br)c(Oc3cc(C4CCCC4)c(=O)[nH]n3)c(Br)c2)c(=O)[nH]c1=O [Compound 22] | –
24 | 7.22 | 6.25 | 6.74 | Cc1nn(-c2cc(Br)c(Oc3cc(C4CC4)c(=O)[nH]n3)c(Br)c2)c(=O)[nH]c1=O [Compound 23] | –
25 | 7.52 | 6.51 | 7.05 | Cc1nn(-c2cc(Br)c(Oc3cc(C(C)C)c(=O)[nH]n3)c(Br)c2)c(=O)[nH]c1=O [Compound 46] | –
26 | 6.77 | 4.05 | 5.07 | N#Cc1nn(-c2cc(Cl)c(Oc3cc(C4CCCC4)c(=O)[nH]n3)c(C(F)(F)F)c2)c(=O)[nH]c1=O [Compound 63] | –
